Measured values published in publication PMC10877565, “Iso-ADP-Ribose Fluorescence Polarization Probe for the Screening of RNF146 WWE Domain Inhibitors” (ACS Chemical Biology, 2024).
Where “and” joins values, the source holds several entries; their conditions need not be identical. Equal values may be shown once. Entries after “also recorded” stand apart in the source; their conditions may differ. Read-outs that look alike come from different tables or passages of the source.

Key:
RNF146 WWE domain [1] = target: T1, RNF146 WWE domain (Homo sapiens, UniProt Q9NTX7); test: Competitive FP-based binding assay with TAMRA-isoADPr tracer; conditions: for Hillslope: IC50 curve of fragment hits; for IC50: TAMRA-isoADPr 20 nM, RNF146 WWE 100 nM
T1 construct: PARP11, PARP14, TiPARP, DTX2, and RNF146 WWE domain plasmids were either cloned or purchased from Twist Biosciences; His tag (N); made in house; host or cells: E. coli BL21(DE3), pET28a
T1 sequence (Q9NTX7 92-168 limits assumed): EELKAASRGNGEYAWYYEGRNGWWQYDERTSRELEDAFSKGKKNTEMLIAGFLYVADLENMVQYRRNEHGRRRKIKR

TiPARP WWE = target: T2, TiPARP WWE (Homo sapiens, UniProt Q7Z3E1); test: FP titration of WWE domains with TAMRA-isoADPr; format: binding; conditions: same conditions as RNF146 WWE titration
T2 construct: PARP11, PARP14, TiPARP, DTX2, and RNF146 WWE domain plasmids were either cloned or purchased from Twist Biosciences; made in house; host or cells: E. coli BL21(DE3), pET28a
T2 sequence (Q7Z3E1 332-410 limits assumed): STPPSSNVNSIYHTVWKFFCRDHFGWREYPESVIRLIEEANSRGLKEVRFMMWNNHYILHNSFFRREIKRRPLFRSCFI
Text: (§1) We then screened the tracer TAMRA-isoADPr against WWE domains of some other proteins, including PARP11, PARP14, HUWE1, TiPARP, and DTX2, under the same conditions. […] To check the folding of purified WWE domains, we obtained the circular dichroism (CD) spectra for the purified WWE domains, and the results indicated proper folding of all purified proteins (Figure S5). […] The isoADPr binding pocket of RNF146 WWE is special in that the entire pocket is largely positively charged with multiple arginine and lysine residues to interact with both phosphate groups of isoADPr, while this feature is missing in other WWE domains containing proteins (Figure S2). Indeed, RNF146 WWE is the only reported high-affinity binder of the isoADPr monomer, so it is likely that other WWE domains tested are simply too weak binders to show any significant binding at the concentrations tested.
(§2) The purified WWE domain proteins were 3-fold serially diluted from 20 μM to ∼5 nM in the assay buffer (25 mM Tris pH 8.0, 150 mM NaCl, and 0.01% Tween-20). In the assay, 50 μL of the protein solution at each concentration was transferred to a 96-well black plate (Corning, #3915), followed by the addition of 50 μL of TAMRA-isoADPr (40 nM, 2X) in the assay buffer to reach a final volume of 100 μL. The plate was allowed to stand at RT for 30 min and then scanned on Cytation5 equipped with an FP filter cube (Agilent, part number: 8040562, Ex: 530/25, Em: 590/35). mP values were calculated using the equation below [drawing 1] where F// and F⊥ are the parallel and perpendicular fluorescence intensities, respectively, and G is the grating factor of the instrument, which was calibrated so that 20 nM 5-TAMRA has an mP shift of 50. The obtained mP data were fitted in the one-site-specific binding model implemented in GraphPad Prism 9.4.1 (GraphPad Software, Inc.) to give the Kd value using the equation below [drawing 2]

DTX2 WWE = target: T3, DTX2 WWE (Homo sapiens, UniProt Q86UW9); test: FP titration of WWE domains with TAMRA-isoADPr; format: binding; conditions: same conditions as RNF146 WWE titration
T3 sequence (Q86UW9 98-174 limits assumed): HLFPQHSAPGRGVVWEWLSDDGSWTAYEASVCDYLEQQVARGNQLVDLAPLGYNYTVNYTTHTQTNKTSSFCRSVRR
Text: as §1, §2

HUWE1 WWE [2] = target: T4, HUWE1 WWE (Homo sapiens, UniProt Q7Z6Z7); test: FP titration of WWE domains with TAMRA-isoADPr; format: binding; conditions: same conditions as RNF146 WWE titration
T4 construct: The HUWE1 WWE domain was purified as previously reported; made in house
T4 sequence (Q7Z6Z7 1603-1680 limits assumed): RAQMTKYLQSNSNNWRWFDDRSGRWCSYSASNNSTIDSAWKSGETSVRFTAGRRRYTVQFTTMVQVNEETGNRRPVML
Text: as §1, §2

PARP11 WWE = target: T5, PARP11 WWE (Homo sapiens, UniProt Q9NR21); test: FP titration of WWE domains with TAMRA-isoADPr; format: binding; conditions: same conditions as RNF146 WWE titration
T5 construct: PARP11, PARP14, TiPARP, DTX2, and RNF146 WWE domain plasmids were either cloned or purchased from Twist Biosciences; made in house; host or cells: E. coli BL21(DE3), pET28a
T5 sequence (Q9NR21 22-106 limits assumed): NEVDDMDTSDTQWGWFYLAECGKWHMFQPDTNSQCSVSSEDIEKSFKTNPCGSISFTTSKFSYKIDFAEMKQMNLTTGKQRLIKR
Text: as §1, §2

PARP14 WWE = target: T6, PARP14 WWE (Homo sapiens, UniProt Q460N5); test: FP titration of WWE domains with TAMRA-isoADPr; format: binding; conditions: same conditions as RNF146 WWE titration
T6 construct: PARP11, PARP14, TiPARP, DTX2, and RNF146 WWE domain plasmids were either cloned or purchased from Twist Biosciences; made in house; host or cells: E. coli BL21(DE3), pET28a
T6 sequence (Q460N5 1523-1601 limits assumed): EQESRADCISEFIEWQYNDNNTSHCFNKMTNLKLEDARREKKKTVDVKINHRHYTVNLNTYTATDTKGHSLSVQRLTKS
Text: as §1, §2

RNF146 WWE domain [3] = target: T1, RNF146 WWE domain; test: FP protein titration of tracer with RNF146 WWE; format: binding; conditions: tracer 20 nM, Tris buffer pH 8.0
Method: Having obtained the tracer molecule TAMRA-isoADPr, we then examined its binding affinity by FP protein titration experiments, where a fixed concentration of the tracer (20 nM) was titrated with increasing concentrations of RNF146 WWE protein in Tris buffer (pH 8.0), yielding a binding curve with an increasing mP shift (ΔmP) until a plateau was observed.
as §2

HUWE1 WWE [4] = target: T4, HUWE1 WWE; conditions: reported; cited from earlier work
RNF146 WWE [5] = target: T7, RNF146 WWE (Homo sapiens, UniProt Q9NTX7); conditions: isothermal titration calorimetry; read-out: reported Kd; cited from earlier work
T7 construct: PARP11, PARP14, TiPARP, DTX2, and RNF146 WWE domain plasmids were either cloned or purchased from Twist Biosciences; His tag (N); made in house; host or cells: E. coli BL21(DE3), pET28a
T7 sequence (Q9NTX7 92-168 limits assumed): T1 sequence (Q9NTX7 92-168 limits assumed)

RNF146 WWE [6] = target: T7, RNF146 WWE; test: Biolayer interferometry, immobilized biotin-isoADPr with RNF146 WWE; format: binding; conditions: BLI
Text: To further validate that our probe indeed can bind to RNF146 WWE, we sought to measure the Kd value of TAMRA-isoADPr toward RNF146 WWE through biolayer interferometry (BLI). A typical BLI experiment relies on an antibody-coated biosensor tip that can capture the protein of interest, and it was then dipped into solutions containing potential interacting molecules (here, referred to as the analyte).[20] The interaction between the protein and the analyte can be measured in real time through monitoring the reflected light pattern upon complex formation on the biosensor surface, giving useful kinetics information, including kon, koff, and Kd. […] Therefore, we synthesized a biotin-labeled isoADPr compound (11, Figure 3A) from 3′-azido-isoADPr, which is structurally analogous to TAMRA-isoADPr. Biotin-isoADPr was immobilized onto SA biosensors that were then dipped into RNF146 WWE solutions of varying concentrations in multiple association–dissociation cycles (Figure S1B). […] The BLI experiment further supports that our tracer design strategy works for RNF146 WWE.
The binding of biotin-isoADPr to the RNF146 WWE was monitored and measured on an Octet RH16 biolayer interferometer. Three replicate streptavidin biosensor tips (SA) were loaded with 1 μM biotin-isoADPr in the kinetics buffer (PBS with 0.02% Tween-20 and 0.1% BSA) for 300 s. After a 300 s baseline step, the loaded sensor tips were moved to sample wells containing RNF146 WWE protein at 0, 12, 49, 187, 750, 3000, 9000, and 18000 nM in the kinetics buffer sequentially in multiple cycles, with each cycle consisting a 300 s association step in the sample well and a 300 s dissociation step in the buffer well. The volume of each well was 200 μL. A reference biosensor without biotin-isoADPr loading was used to exclude the possibilities of nonspecific binding, and reference wells without RNF146 WWE protein were used for blank subtraction. Data were processed and curves were fitted with a 1:1 best-fit model in Octet BLI Analysis software.

WWE domains = test: FP titration of different WWE domains using TAMRA-ADPr; format: binding; conditions: Figure S3, n = 3
Text: as §1
Figure S3. FP titration of different WWE domains using TA M R A -ADPr (n= 3). Data of SA RS-C oV 2 N sp3
Macro (black) is shown here as comparison.
F i g u re S 4. Attempted IC50 measurement and chemical structure of Z1203162033. […]

RNF146 WWE [7] = target: T7, RNF146 WWE; test: Fragment library screening by competitive FP, 384-well; format: binding; conditions: 100 μM, 1% DMSO
Method: To test the performance of the established FP assay in high-throughput formats, we conducted a pilot screen where isoADPr was used as the positive control, and Enamine Essential Fragments Library, which contains 320 fragments, was used as a test case for potential inhibitors. The test library was screened at 100 μM in 1% DMSO under the established conditions in duplicates in two 384-well plates (Figure 4A). In each plate, four controls were used: buffer control, tracer control, negative control, and positive control. Buffer control allowed the detection of background fluorescence, while tracer and negative controls gave mP values of the free tracer and maximally bound tracer, to which inhibition rates of fragment candidates were normalized. […] From these control wells, different assay parameters could be calculated. One important FP assay parameter is the assay window (ΔmP), which is calculated as the difference between the mP value recorded for the bound tracer (i.e., negative control) and the mP value recorded for the free tracer (i.e., tracer control). […] Another parameter general to all HTS assays is the screening window coefficient (Z′ factor). A Z′ factor value between 0.5 and 1 is suitable for HTS.[26] […] Moreover, the coefficients of variation (CV) of both negative and positive control wells were low.
Using epMotion 96 (Eppendorf), 49.5 μL of the assay solution (100 nM RNF146 WWE and 20 nM TAMRA-isoADPr) or control solution (tracer-only, buffer-only, and positive control with additional 100 μM isoADPr) was transferred from a 96-well mother plate to a 384-well black plate (Corning, #3575). […] For each fragment and positive and negative control well, the relative percent binding of the tracer was calculated as described above. Z’ factor was calculated with the following equation [drawing 5] where σP and σN are the standard deviations of ΔmP values of positive and negative control wells, while μP and μN are the mean ΔmP values of positive and negative control wells.

O=C(O)c1sccc1-n1cccc1 [compound 13]
Hillslope (RNF146 WWE domain [1]): -1.834 | IC50 (RNF146 WWE domain [1]; fragment hits): 39.5 µM and 40 µM

[N-]=[N+]=N[C@H]1[C@@H](O[C@H]2O[C@H](COP(=O)(O)O)[C@@H](O)[C@H]2O)[C@H](n2cnc3c(N)ncnc32)O[C@@H]1COP(=O)(O)O [3′-azido-isoADPr]
fold more potent than isoADPr (RNF146 WWE domain [1]; IC50 compared with isoADPr): 2 fold | IC50 (RNF146 WWE domain [1]; 96-well): 0.273 µM

CN(C)c1ccc2c(c1)Oc1cc(N(C)C)ccc1C21OC(=O)c2cc(C(=O)NCCCCCCNC(=O)CCc3cn([C@H]4[C@@H](O[C@H]5O[C@H](COP(=O)(O)O)[C@@H](O)[C@H]5O)[C@H](n5cnc6c(N)ncnc65)O[C@@H]4COP(=O)(O)O)nn3)ccc21 [TAMRA-isoADPr]
binding of tracer (TiPARP WWE): no binding; also recorded: none of these WWE domains could bind the tracer | binding of tracer (DTX2 WWE): no binding; also recorded: none of these WWE domains could bind the tracer | binding of tracer (HUWE1 WWE [2]): no binding; also recorded: none of these WWE domains could bind the tracer | binding of tracer (PARP11 WWE): no binding; also recorded: none of these WWE domains could bind the tracer | binding of tracer (PARP14 WWE): no binding; also recorded: none of these WWE domains could bind the tracer | Kd (RNF146 WWE domain [3]): 0.0452 µM

Nc1ncnc2c1ncn2[C@@H]1O[C@H](COP(=O)(O)O)[C@@H](O)[C@H]1O[C@H]1O[C@H](COP(=O)(O)O)[C@@H](O)[C@H]1O [isoADPr, iso-ADP-ribose]
Kd (HUWE1 WWE [4]): 13 µM | Kd (RNF146 WWE [5]): 0.37 µM | IC50 (RNF146 WWE domain [1]; 96-well): 0.623 µM

Nc1ncnc2c1ncn2[C@@H]1O[C@H](COP(=O)(O)O)[C@@H](n2cc(COCCOCCOCCOCCNC(=O)CCCC[C@@H]3SC[C@@H]4NC(=O)N[C@@H]43)nn2)[C@H]1O[C@H]1O[C@H](COP(=O)(O)O)[C@@H](O)[C@H]1O [biotin-isoADPr]
Kd (RNF146 WWE [6]; SA biosensor, 1:1 fit): 0.644 µM | kon (RNF146 WWE [6]; mean ± error, n = 3): 65700 M⁻¹ s⁻¹ | koff (RNF146 WWE [6]; mean ± error, n = 3, read-out: kdis): 0.0423 s⁻¹

CN(C)c1ccc2c(c1)Oc1cc(N(C)C)ccc1C21OC(=O)c2cc(C(=O)NCCCCCCNC(=O)CCc3cn([C@H]4O[C@H](COP(=O)(O)OP(=O)(O)OC[C@H]5O[C@@H](n6cnc7c(N)ncnc76)[C@H](O)[C@@H]5O)[C@@H](O)[C@H]4O)nn3)ccc21 [TAMRA-ADPr]
binding of TAMRA-ADPr (WWE domains): does not bind

COc1cc(CC(=O)O)ccc1O [Z1203162033]
binding strength in attempted IC50 measurement (RNF146 WWE domain [1]; Figure S4): much weaker binder | percent binding of tracer (RNF146 WWE [7]; AVERAGE of two plates): 43.4% | percent binding of tracer (RNF146 WWE [7]; PLATE1): 43.6% | percent binding of tracer (RNF146 WWE [7]; PLATE2): 43.3%

O=C(O)c1cc2occc2[nH]1 [compound 12]
Hillslope (RNF146 WWE domain [1]): -1.134 | IC50 (RNF146 WWE domain [1]; fragment hits): 86.2 µM and 86 µM
